Read-outs that look alike come from different tables or passages of the source. Where a SMILES comes first, the peptide text is derived from it. The star is where a group is joined. Fmoc = O=C(OCC1c2ccccc2-c2ccccc21)*
How the values were obtained:
[1] = cited from earlier work
[2] = for G' (storage modulus): at 1 Hz
Method: Rheological measurements were performed on AR 2000 controlled stress rheometer (TA Instruments Ltd, Great Britain) operated in cone-plate mode (cone angles 1 and 4 with diameters of 60 and 40 mm, respectively). Small-amplitude oscillatory shear experiments (0.1-10 Hz) were performed within the linear viscoelastic limit. Frequency scans were performed at the lowest stress possible to prevent damage to the sample. The linearity of response was monitored continuously to ascertain linear viscoelasticity.
To study the biomechanical characteristics of the novel hydrogel, rheology measurements were performed.

[3] = HFIP stock, 5 mg/ml
Method: Determination of water percentage in the gel was done by washing a freshly formed hydrogel with water five times, each time for 15 minutes, followed by weighing the gel, lyophilizing it and weighing the remaining peptide aggregate.

[4] = in vitro; settings: CHO cells seeded on the peptide hydrogel
Method: (§1) For cell growth in vitro experiments Chinese Hamster Ovary (CHO) cells were grown in Dulbecco's Modified Eagle Medium (DMEM) supplemented with 10% Fetal Calf Serum, 100 U/ml penicillin, 100 U/ml streptomycin and 2 mmol/liter L-glutamine (all from Beit Haemek, Israel). Cells were maintained at 37° C. in a humidified atmosphere containing 5% CO2. Sub-confluent cells were harvested by trypsinization, counted and diluted in the cells media to 1×10^5 cells/ml. The gel was washed three times with 0.5 ml water for 30 minutes at a time and was then left overnight in 0.5 ml DMEM. The DMEM was thereafter removed and 500 μl of CHO cells (5×10^4 cells) were added over the hydrogel. After a 24 hour incubation period at 37° C. the viability of the cells was determined using a MTT (3-(4,5-dimethylthiazolyl-2)-2,5-diphenyltetrazolium bromide) assay [Nowak et al., Nature 417, 424 (2002)].
(§2) In order to exploit whether the peptide-based hydrogel described herein can serve as a scaffold for tissue engineering applications, its biocompatibility was examined using cellular in vitro experiments. Chinese Hamster Ovary (CHO) cells were suspended above the hydrogel after its formation in a […]. After a one-day incubation period the cells were analyzed for viability.

[5] = system: Chinese Hamster Ovary (CHO) cells; experiment: in vitro
Method: as §1, §2

[6] = CHO cells on hydrogel from HFIP stock, one-day incubation

Compound: [COCH3]-RADARADARADARADA-[CONH2] [RADA16 (Puramatrix)]
- G' (storage modulus) ([1]; 5 mg/ml, Tris HCl buffer, at 1 Hz, reported value): 50 Pa
- G' (storage modulus) ([1]; 5 mg/ml, Tris HCl buffer, at 1 Hz, reported value, listed as PuraMatrix gel): about 50 Pa
- G' (storage modulus) ([1]; at 1 Hz frequency, concentration not given): about 50 Pa

Compound: O=C(N[C@@H](Cc1ccccc1)C(=O)N[C@@H](Cc1ccccc1)C(=O)O)OCC1c2ccccc2-c2ccccc21 [Fmoc-Phe-Phe, Fmoc-diphenylalanine] (Fmoc-Phe-Phe-OH)
- storage modulus G' excess over loss modulus G'' ([2]; HFIP stock, final concentration 5 mg/ml (FIG. 3a)): about one order of magnitude
- G' (storage modulus) ([2]; peptide concentration 5 mg/ml, solvent not stated): about 2×10^4 Pa
- G' (storage modulus) ([2]; peptide final concentration 1 mg/ml, stock solution solvent DMSO): 1,000 Pa
- G' (storage modulus) ([2]; peptide final concentration 2 mg/ml, acetone stock solution): about 2×10^3 Pa
- G' (storage modulus) ([2]; peptide final concentration 5 mg/ml, stock solution solvent HFIP): 10,000 Pa
- G' (storage modulus) ([2]; peptide final concentration 5 mg/ml, stock solution solvent HFIP, listed as Fmoc-diphenylalanine): about 10^4 Pa
- G' (storage modulus) ([2]; peptide final concentration 5 mg/ml, stock solution solvent acetone): 10,000 Pa
- G' (storage modulus) ([2]; peptide final concentration 10 mg/ml, acetone stock solution (FIG. 3c)): about 2×10^4 Pa
- G' relative to that reported for other self-assembled peptide hydrogels ([2]; versus hydrogels formed without chemical cross linking): 200 fold
- hydrogel water content [3]: greater than 99%
- viability at 24 h [4]: > 80%
- cell morphology [5, 6]: normal cell morphology
- rate of proliferation [5, 6]: normal rate of proliferation
- cell growth on hydrogel compared with poly lysine ([5]; CHO cells, hydrogel from DMSO stock, final DMSO concentration 1%): effective matrix for cell growth
